In PubChem BioAssay (NCI):
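Five concentrations, 48 hours, 96-well plates. GI50 = concentration required for 50% inhibition of growth. TGI is the concentration that stops growth completely.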

Key:
Test in all cases: NCI tumour cell line growth inhibition, 48 h
786-0 renal = test system: 786-0 renal
A498 renal = test system: A498 renal
A549 NSCLC = test system: A549 NSCLC
ACHN renal = test system: ACHN renal
BT-549 breast = test system: BT-549 breast
CAKI-1 renal = test system: CAKI-1 renal
CCRF-CEM leukemia = test system: CCRF-CEM leukemia
COLO 205 colon = test system: COLO 205 colon
DU-145 prostate = test system: DU-145 prostate
EKVX NSCLC = test system: EKVX NSCLC
HCC-2998 colon = test system: HCC-2998 colon
HCT-116 colon = test system: HCT-116 colon
HCT-15 colon = test system: HCT-15 colon
HL-60(TB) leukemia = test system: HL-60(TB) leukemia
HOP-62 NSCLC = test system: HOP-62 NSCLC
HOP-92 NSCLC = test system: HOP-92 NSCLC
HS 578T breast = test system: HS 578T breast
HT29 colon = test system: HT29 colon
IGROV1 ovarian = test system: IGROV1 ovarian
K-562 leukemia = test system: K-562 leukemia
KM12 colon = test system: KM12 colon
LOX IMVI melanoma = test system: LOX IMVI melanoma
M14 melanoma = test system: M14 melanoma
MALME-3M melanoma = test system: MALME-3M melanoma
MCF7 breast = test system: MCF7 breast
MDA-MB-231 breast = test system: MDA-MB-231 breast
MDA-MB-435 = test system: MDA-MB-435
MOLT-4 leukemia = test system: MOLT-4 leukemia
NCI-H226 lung = test system: NCI-H226 lung
NCI-H23 lung = test system: NCI-H23 lung
NCI-H460 lung = test system: NCI-H460 lung
NCI-H522 lung = test system: NCI-H522 lung
NCI/ADR-RES ovarian = test system: NCI/ADR-RES ovarian
OVCAR-3 ovarian = test system: OVCAR-3 ovarian
OVCAR-4 ovarian = test system: OVCAR-4 ovarian
OVCAR-5 ovarian = test system: OVCAR-5 ovarian
OVCAR-8 ovarian = test system: OVCAR-8 ovarian
PC-3 prostate = test system: PC-3 prostate
RPMI-8226 leukemia = test system: RPMI-8226 leukemia
RXF 393 renal = test system: RXF 393 renal
SF-268 CNS = test system: SF-268 CNS
SF-295 CNS = test system: SF-295 CNS
SF-539 CNS = test system: SF-539 CNS
SK-MEL-2 melanoma = test system: SK-MEL-2 melanoma
SK-MEL-28 melanoma = test system: SK-MEL-28 melanoma
SK-MEL-5 melanoma = test system: SK-MEL-5 melanoma
SK-OV-3 ovarian = test system: SK-OV-3 ovarian
SN12C renal = test system: SN12C renal
SNB-19 CNS = test system: SNB-19 CNS
SNB-75 CNS = test system: SNB-75 CNS
SR leukemia = test system: SR leukemia
SW-620 colon = test system: SW-620 colon
T-47D breast = test system: T-47D breast
TK-10 renal = test system: TK-10 renal
U251 CNS = test system: U251 CNS
UACC-257 melanoma = test system: UACC-257 melanoma
UACC-62 melanoma = test system: UACC-62 melanoma
UO-31 renal = test system: UO-31 renal

COC(=O)c1c2c(c[n+]([O-])c1C)C(=O)C=C(NCc1ccccc1)C2=O
GI50 (786-0 renal): 295 nM | TGI (786-0 renal): 1220 nM | GI50 (A498 renal): 210 nM | TGI (A498 renal): 1050 nM | GI50 (A549 NSCLC): 227 nM | TGI (A549 NSCLC): 564 nM | GI50 (ACHN renal): 210 nM | TGI (ACHN renal): 579 nM | GI50 (BT-549 breast): 169 nM | TGI (BT-549 breast): 319 nM | GI50 (CAKI-1 renal): 289 nM | TGI (CAKI-1 renal): 1120 nM | GI50 (CCRF-CEM leukemia): 264 nM | TGI (CCRF-CEM leukemia): 955 nM | GI50 (COLO 205 colon): 151 nM | TGI (COLO 205 colon): 372 nM | GI50 (DU-145 prostate): 172 nM | TGI (DU-145 prostate): 316 nM | GI50 (EKVX NSCLC): 205 nM | TGI (EKVX NSCLC): 507 nM | GI50 (HCC-2998 colon): 213 nM | TGI (HCC-2998 colon): 492 nM | GI50 (HCT-116 colon): 189 nM | TGI (HCT-116 colon): 586 nM | GI50 (HCT-15 colon): 151 nM | TGI (HCT-15 colon): 350 nM | GI50 (HL-60(TB) leukemia): 174 nM | TGI (HL-60(TB) leukemia): 445 nM | GI50 (HOP-62 NSCLC): 209 nM | TGI (HOP-62 NSCLC): 590 nM | GI50 (HOP-92 NSCLC): 287 nM | TGI (HOP-92 NSCLC): 822 nM | GI50 (HS 578T breast): 263 nM | TGI (HS 578T breast): 710 nM | GI50 (HT29 colon): 211 nM | TGI (HT29 colon): 1420 nM | GI50 (IGROV1 ovarian): 167 nM | TGI (IGROV1 ovarian): 389 nM | GI50 (K-562 leukemia): 192 nM | TGI (K-562 leukemia): 1860 nM | GI50 (KM12 colon): 222 nM | TGI (KM12 colon): 785 nM | GI50 (LOX IMVI melanoma): 175 nM | TGI (LOX IMVI melanoma): 451 nM | GI50 (M14 melanoma): 161 nM | TGI (M14 melanoma): 315 nM | GI50 (MALME-3M melanoma): 42.3 nM | TGI (MALME-3M melanoma): 153 nM | GI50 (MCF7 breast): 149 nM | TGI (MCF7 breast): 361 nM | GI50 (MDA-MB-231 breast): 200 nM | TGI (MDA-MB-231 breast): 618 nM | GI50 (MDA-MB-435): 125 nM | TGI (MDA-MB-435): 255 nM | GI50 (MOLT-4 leukemia): 203 nM | TGI (MOLT-4 leukemia): 497 nM | GI50 (NCI-H226 lung): 338 nM | TGI (NCI-H226 lung): 1490 nM | GI50 (NCI-H23 lung): 169 nM | TGI (NCI-H23 lung): 421 nM | GI50 (NCI-H460 lung): 215 nM | TGI (NCI-H460 lung): 476 nM | GI50 (NCI-H522 lung): 189 nM | TGI (NCI-H522 lung): 509 nM | GI50 (NCI/ADR-RES ovarian): 237 nM | TGI (NCI/ADR-RES ovarian): 798 nM | GI50 (OVCAR-3 ovarian): 41.3 nM | TGI (OVCAR-3 ovarian): 209 nM | GI50 (OVCAR-4 ovarian): 90.4 nM | TGI (OVCAR-4 ovarian): 225 nM | GI50 (OVCAR-5 ovarian): 192 nM | TGI (OVCAR-5 ovarian): 390 nM | GI50 (OVCAR-8 ovarian): 220 nM | TGI (OVCAR-8 ovarian): 787 nM | GI50 (PC-3 prostate): 208 nM | TGI (PC-3 prostate): 996 nM | GI50 (RPMI-8226 leukemia): 258 nM | TGI (RPMI-8226 leukemia): 843 nM | GI50 (RXF 393 renal): 197 nM | TGI (RXF 393 renal): 521 nM | GI50 (SF-268 CNS): 263 nM | TGI (SF-268 CNS): 929 nM | GI50 (SF-295 CNS): 154 nM | TGI (SF-295 CNS): 298 nM | GI50 (SF-539 CNS): 182 nM | TGI (SF-539 CNS): 353 nM | GI50 (SK-MEL-2 melanoma): 171 nM | TGI (SK-MEL-2 melanoma): 363 nM | GI50 (SK-MEL-28 melanoma): 245 nM | TGI (SK-MEL-28 melanoma): 554 nM | GI50 (SK-MEL-5 melanoma): 140 nM | TGI (SK-MEL-5 melanoma): 274 nM | GI50 (SK-OV-3 ovarian): 425 nM | TGI (SK-OV-3 ovarian): 1600 nM | GI50 (SN12C renal): 156 nM | TGI (SN12C renal): 298 nM | GI50 (SNB-19 CNS): 281 nM | TGI (SNB-19 CNS): 954 nM | GI50 (SNB-75 CNS): 166 nM | TGI (SNB-75 CNS): 309 nM | GI50 (SR leukemia): 204 nM | GI50 (SW-620 colon): 258 nM | TGI (SW-620 colon): 727 nM | GI50 (T-47D breast): 197 nM | TGI (T-47D breast): 653 nM | GI50 (TK-10 renal): 690 nM | TGI (TK-10 renal): 2090 nM | GI50 (U251 CNS): 255 nM | TGI (U251 CNS): 787 nM | GI50 (UACC-257 melanoma): 148 nM | TGI (UACC-257 melanoma): 323 nM | GI50 (UACC-62 melanoma): 154 nM | TGI (UACC-62 melanoma): 304 nM | GI50 (UO-31 renal): 183 nM | TGI (UO-31 renal): 477 nM
